Measured values reported in paper PMC10384675, “Novel Thiazolidine-2,4-dione-trimethoxybenzene-thiazole Hybrids as Human Topoisomerases Inhibitors” (Pharmaceuticals, 2023).

Columns and labels:
Format in all cases: cell-based
[1] = tested on: MDA-MB-231 breast cancer cells; test: MTT cell viability assay, MDA-MB-231; details: Homo sapiens, 72 h
Protocol: (§1) All of the synthesized compounds (7a–f) were studied to test their anticancer activity toward the estrogen receptor-positive (ER+) MCF-7 and the triple-negative MDA-MB-231 breast cancer cells (ER-, PR- and HER-2/Neu not overexpressed) and A2058 melanoma cells. Cells were incubated for 72 h with different concentrations of the compounds, and then the viability was checked by the MTT assay. […] Moreover, we checked the cytotoxicity of all of the synthesized compounds against the human MCF-10A non-malignant breast epithelial cells and mouse BALB/3T3 embryonic fibroblasts, in order to evaluate their selectivity on cancer cells.
(§2) The used cell lines (breast cancer cell lines MCF-7 and MDA-MB-231, melanoma cell line A2058 and human mammary epithelial cell line MCF-10A) were obtained from American Type Culture Collection (ATCC, Manassas, VA, USA) and cultured as already reported. The mouse BALB/3T3 embryonic fibroblasts were also purchased from American Type Culture Collection (ATCC, Manassas, VA, USA) and cultured in DMEM high glucose supplemented with 10% bovine calf serum (BCS) and 100 U mL^−1 penicillin/streptomycin.
(§3) MTT assay (Sigma Aldrich (St. Louis, MO, USA)) was performed for evaluating the in vitro anticancer activities of the compounds, as previously indicated. Different concentrations (0.1, 1, 10, 25, 50, and 100 μM) of the compounds were employed, with a 72 h endpoint. IC50 values were obtained from the percent (%) of control using GraphPad Prism 9 (GraphPad Software, La Jolla, CA, USA).

[2] = tested on: human MCF-10A non-malignant breast epithelial cells; test: MTT cytotoxicity assay, MCF-10A; details: 72 h, normal cells
Protocol: as §1, §2, §3

A2058 melanoma cells = test: MTT cell viability assay, A2058; details: Homo sapiens, 72 h
Protocol: as §1, §2, §3

[3] = tested on: mouse BALB/3T3 embryonic fibroblasts; test: MTT cytotoxicity assay, BALB/3T3; details: 72 h, normal cells
Protocol: as §1, §2, §3

IC50 [1]: 41.2 ± 0.9 µM
IC50 (A2058 melanoma cells): 8.4 ± 0.9 µM
Compound: COc1cc(/C=C2\SC(=O)N(CC(=O)Nc3nc(-c4ccc(Br)cc4)cs3)C2=O)cc(OC)c1OC [compound 7e, (Z)-2-(5-(3,4,5-Trimethoxybenzylidene)thiazolidin-2,4-dion-3-yl)-N-(4-(4-bromophenyl)thiazol-2-yl)acetamide]
IC50 [2]: > 100 µM
IC50 [3]: 35 ± 0.6 µM
